# Measurements as given in PMC4601051, “Discovery of Indoline-2-carboxamide Derivatives as a New Class of Brain-Penetrant Inhibitors of Trypanosoma brucei” (Journal of Medicinal Chemistry, 2015).
# Read-outs that look alike come from different tables or passages of the source.
# Tests used:
# [1] = Microsomal intrinsic clearance (Clint), human; format: in vitro ADME; settings: human liver microsomes, 0.5 μM compound
# Method: (§1) Each test compound (0.5 μM) was incubated with pooled female CDI mouse liver microsomes, pooled male Sprague–Dawley rat microsomes, or pooled mixed gender human liver microsomes (Tebu-Bio, UK; 0.5 mg/mL 50 mM potassium phosphate buffer, pH 7.4) and the reaction started with addition of excess NADPH (8 mg/mL, 50 mM potassium phosphate buffer, pH 7.4). Immediately, at time zero, then at 3, 6, 9, 15, and 30 min, an aliquot (50 μL) of the incubation mixture was removed and mixed with acetonitrile (100 μL) to stop the reaction. Internal standard was added to all samples, and the samples were centrifuged at 1825g for 10 min to sediment precipitated protein. The plates were then sealed prior to UPLC/MS/MS analysis using a Quattro Premier XE (Waters Corporation, USA).
# (§2) XLfit (IDBS, UK) was used to calculate the exponential decay and consequently the rate constant (k) from the ratio of peak area of test compound to internal standard at each time point.
# [2] = Microsomal intrinsic clearance (Clint), mouse; format: in vitro ADME; settings: mouse liver microsomes, 0.5 μM compound
# Method: as §1, §2
# [3] = in vitro; settings: human, MRC-5 fibroblasts
# Method: Proliferation assays using bloodstream form T. brucei brucei and human MRC-5 fibroblasts were conducted using a modification of the cell viability assay as previously reported.[27],[39]
# MRC-5 cells (2000 cells per well) were seeded in 200 μL of DMEM, 10% FCS, and allowed to adhere overnight. One microliter of test compound was added to each well on the day of assay initiation.
# The final DMSO level was 0.5% in all cases.
# [4] = system: bloodstream form T. brucei brucei; experiment: T. b. brucei whole cell parasite (trypanosome growth) assay; format: cell-based, Trypanosoma brucei brucei; settings: for EC50: mean of two or more determinations, 69 h + 4 h resazurin, read-out: T. b. brucei EC50; for loss in potency: T. b. brucei EC50, compared to 1 (parent)
# Method: This was conducted as previously described.[27] Cell culture plates were stamped with 1 μL of an appropriate stock concentration of test compound, followed by addition of 200 μL of trypanosome culture (HMI9-T, 10% FCS) to each well at a density of 2000 cells per well (except column 12 receiving media only). […] Potency was carried out using 10-point dose–response curves.
# [5] = Microsomal intrinsic clearance (Clint), rat; format: in vitro ADME; settings: rat liver microsomes, 0.5 μM compound
# Method: as §1, §2
Compound,"microsomal intrinsic clearance, human [1] [mL min^–1 g^–1]",mouse microsomal intrinsic clearance [2] [mL min^–1 g^–1],EC50 at 69 h [3] [nM],EC50 ([4]; Trypanosoma brucei) [nM],"microsomal intrinsic clearance, rat [5] [mL min^–1 g^–1]",loss in potency [4] [fold],EC50 [4] [nM],"improvement in activity ([4]; T. b. brucei EC50, compared to 21)"
CNC(=O)C1Cc2c(cc(F)c(F)c2F)N1C(=O)COc1ccc(Cl)cc1 (stereo not drawn) [Compound 59],4.3,3.7,> 50000,70,6.7,–,–,–
CNC(=O)C1Cc2ccccc2N1C(=O)COc1ccccc1 (stereo not drawn) [Compound 31],1.4,6.9,> 50000,40,9.0,–,–,–
CNC(=O)C1Cc2ccccc2N1C(=O)COc1ccc(Cl)c(Cl)c1 (stereo not drawn) [Compound 30],–,9.1,> 50000,400,–,15,–,–
CNC(=O)C1Cc2ccccc2N1C(=O)COc1ccc(Cl)c(F)c1 (stereo not drawn) [Compound 29],3.3,4.4,> 50000,30,13.5,–,–,–
Cc1cccc(OCC(=O)N2c3ccccc3CC2C(N)=O)c1 (stereo not drawn) [Compound 24],–,–,> 50000,13000,–,–,–,–
CNC(=O)C1Cc2cc(F)c(F)cc2N1C(=O)COc1ccc(F)cc1 (stereo not drawn) [Compound 57],1.9,2.0,> 50000,90,2.8,–,–,–
CNC(=O)[C@H]1Cc2ccccc2N1C(=O)Cc1ccc(Cl)c(F)c1 [Compound 45],–,8.4,> 50000,80,–,–,–,–
CNC(=O)C1Cc2cc(Br)ccc2N1C(=O)COc1ccc(F)cc1 (stereo not drawn) [Compound 60],–,4.6,> 50000,80,–,–,–,–
CCNC(=O)C1Cc2ccccc2N1C(=O)COc1ccc(Cl)cc1 (stereo not drawn) [Compound 49],–,6.2,> 50000,90,–,–,–,–
O=C(NC1CC1)C1Cc2ccccc2N1C(=O)COc1ccc(Cl)cc1 (stereo not drawn) [Compound 51],–,5.5,> 50000,410,–,~14,–,–
CNC(=O)C1Cc2ccccc2N1C(=O)COc1cccc(OC)c1 (stereo not drawn) [Compound 19],–,–,> 50000,450,–,–,–,–
CNC(=O)C1Cc2ccccc2N1C(=O)Cc1ccc(F)cc1 (stereo not drawn) [Compound 43],–,0.8,> 50000,100,–,–,110,–
CNC(=O)C1Cc2ccccc2N1C(=O)Cc1ccc(C(C)C)cc1 (stereo not drawn) [Compound 41],–,35,> 50000,770,–,–,–,–
CCCCNC(=O)C1Cc2ccccc2N1C(=O)COc1ccc(Cl)cc1 (stereo not drawn) [Compound 50],–,27,> 50000,19000,–,~700,–,–
CNC(=O)C1Cc2cc(F)ccc2N1C(=O)COc1ccc(Cl)cc1 (stereo not drawn) [Compound 54],1.6,2.8,> 50000,60,5.3,–,–,–
CNC(=O)[C@H]1Cc2cc(F)ccc2N1C(=O)COc1ccc(F)cc1 [Compound 56],–,–,> 50000,40,–,–,–,–
CNC(=O)C1Cc2ccccc2N1C(=O)Cc1ccc(Cl)cc1 (stereo not drawn) [Compound 40],–,4.4,> 50000,80,–,–,–,approximately 3 fold
CNC(=O)C1Cc2ccccc2N1C(=O)Cc1ccccc1 (stereo not drawn) [Compound 21],–,–,> 15000,220,–,–,–,–
CN(C)C(=O)C1Cc2ccccc2N1C(=O)COc1ccc(Cl)cc1 (stereo not drawn) [Compound 48],–,–,> 50000,5400,–,200,–,–
CNC(=O)C1Cc2cc(-c3ccccc3)ccc2N1C(=O)COc1ccc(F)cc1 (stereo not drawn) [Compound 61],–,–,> 50000,240,25,~10,–,–
